Patent publication US20250099412A1, “METHOD OF INHIBITING DEGRADING PROTEASE ACTIVITY IN AGING” (The Regents of the University of California, priority 2022, published 2025)

Experiments:
[1] = test system: pancreatic trypsin; experiment: Pancreatic trypsin immunohistochemistry on rat tissue sections (young, old, old-treated); assay type: in vivo; details: old rats (100 weeks), compared with old and young (16 weeks) rats
Source text: (§1) Male Wistar rats (Harlan Sprague Dawley Inc., Indianapolis, IN) at maturity (4 months, 300 to 350 gm) and old age (24 months, 375 to 450 gm) were included in the study. The animals were maintained on standard laboratory chow (8604 Teklad rodent diet; Harlan Laboratories, Indianapolis, IN) without restriction and water ad libitum and maintained in separated room without pathogen-free conditions. […] A subgroup of old animals was given a serine protease inhibitor (tranexamic acid, 14 days) in drinking water (137 mM, exchanged daily) which at a minimum fluid consumption of 40 ml/day amounts to a minimum dose of 0.39 gm/kg/day for 350 gm body weight (BW).
A femoral venous catheter was placed after general anesthesia (pentobarbital sodium, 50 mg/kg [Abbott Laboratories, North Chicago, IL], intramuscularly after local anesthesia with 2% lidocaine HCl [Hospira, Inc, Lake Forrest, IL]). […]
To determine on the tissue sections the immunolabel density and distribution of serine proteases, pancreatic trypsin MoAb (D-1): sc-137077 (Santa Cruz) primary antibody was used, followed by secondary antibodies (MP-7601 for anti-rabbit IgG; MP-7602 for anti-mouse IgG; ImmPRESS Excel staining kit peroxidase). […] No counterstain was applied to facilitate quantitative label intensity measurements and since cellular and vascular structures are readily identified. […] All procedures were carried out under standardized conditions to permit quantitative comparison of label densities.
Small intestine: Full thickness tissue blocks of the wall of proximal jejunum (3 by 5 mm) were fixed from all sides in 10% formaldehyde. Serine proteases were detected with primary and secondary antibodies labeled with DAB (Peroxidase Substrate Kit, ab64238, ABCAM).
Images of the immunolabel density were recorded at different magnifications, from relatively low power overviews of the tissue (10× objective, numerical aperture 0.25) to higher magnification of single cells (at 60× oil immersion objective, numerical aperture 1.4). […]

[2] = test system: collagen; experiment: Collagen fragment labeling with biotin conjugated collagen hybridizing peptides (B-CHP); assay type: in vivo, rat; details: old rats (100 weeks), two-week oral treatment, compared with old and young (16 weeks) rats
Source text: as §1, with “(BW). […]” for “(BW).”
Tissue sections were stained with B-CHP (stock solution, 150 mM; final applied solution 7.5. mM). […] The B-CHP label intensity on the sections was recorded by digital microscopy.
(§2) Images of the immunolabel density were recorded at different magnifications, from relatively low power overviews of the tissue (10× objective, numerical aperture 0.25) to higher magnification of single cells (at 60× oil immersion objective, numerical aperture 1.4). The images were recorded under standard light conditions under fixed settings of the substage condenser with a digital camera (Spot Insight GIGABIT camera, Sterling Height), so that the camera serves as a quantitative light intensity meter. […]

[3] = test system: mucin; experiment: Mucin-containing mucus layer of small intestine stained with alcian blue; assay type: in vivo, rat; details: old rats (100 weeks), two-week oral treatment; compared with old and young rats; FIG. 3B
Source text: as §1, with “(BW). […]” for “(BW).”
as §2, with “meter. Images were analyzed on a laboratory computer to minimize operator error (NIH Image, 1.61, public domain software, spatial resolution of 640×480 pixel).” for “meter.”

[4] = test system: amylase; experiment: Amylase staining of epithelial cells of the small intestine; assay type: in vivo, rat; details: old rats (100 weeks), oral treatment for two weeks; compared with old and young rats; FIG. 3B
Source text: as §1

NC[C@H]1CC[C@H](C(=O)O)CC1 [tranexamic acid]
pancreatic trypsin accumulation in cardiac muscle ([1]; two-week oral treatment (137 mM in drinking water), FIG. 1A): reduces pancreatic trypsin accumulation | pancreatic trypsin accumulation in brain ([1]; two-week oral treatment, FIG. 2A): reduces pancreatic trypsin accumulation | pancreatic trypsin accumulation in intestine ([1]; two-week oral treatment, FIG. 3A): reduces pancreatic trypsin accumulation in old rats (100 weeks) to similar levels seen in young rats | collagen fragmentation in cardiac muscle ([2]; FIG. 1B): reduces collagen fragmentation in cardiac muscle in old-treated rats below levels seen in old rats to levels similar to those seen in young rats | collagen fragmentation in brain ([2]; FIG. 2B): reduces collagen fragmentation in rat brain in old-treated rats below levels seen in old rats to levels similar to those seen in young rats | mucin label density in villi of small intestine [3]: partially restored | increase in amylase in the small intestine of old rats [4]: attenuated
